# Patent US11071731B2, “Allosteric modulators of the mu opioid receptor” (Chiromics, LLC, priority 2017, dated 2021)
# What was measured:
# mu opioid receptor (MOR) [1] = target: T1, mu opioid receptor (MOR) (Homo sapiens, UniProt P35372); assay: Hit Hunter cAMP signaling assay (adenylyl cyclase inhibition), PAM mode with EC20 endomorphin-1; type: cell-based; settings: for allosteric activity for cAMP signaling: EC20 endomorphin-1 concentration of 0.45 nM
# mu opioid receptor (MOR) [2] = target: T1, mu opioid receptor (MOR); assay: PathHunter β-arrestin recruitment assay, PAM mode with EC20 endomorphin-1; type: cell-based; settings: for allosteric activity for β-arrestin recruitment: EC20 endomorphin-1 concentration of 4.5 nM
# Procedure, shortened: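 β-Arrestin recruitment to the receptor was tracked by chemiluminescent β-galactosidase activity from complementing fragments (ED on receptor, EA on β-arrestin). Per-compound outputs were EC50 and percent maximal response.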
# [3] = adenylyl cyclase inhibition, read-out: cAMP EC50
# [4] = maximal response for adenylyl cyclase inhibition
# [5] = maximal response for β-arrestin recruitment
# [6] = β-arrestin recruitment, read-out: β-arr. EC50
# [7] = maximal response, adenylyl cyclase inhibition
# [8] = maximal response, β-arrestin recruitment
# [9] = cAMP EC50 (nM), adenylyl cyclase inhibition, Table 3
# [10] = cAMP EC50, adenylyl cyclase inhibition
# [11] = maximal response for adenylyl cyclase inhibition, Table 3
# [12] = maximal response for β-arrestin recruitment, Table 3
# [13] = β-arrestin recruitment, Table 3, read-out: β-arr. EC50
# T1 sequence (P35372 whole entry): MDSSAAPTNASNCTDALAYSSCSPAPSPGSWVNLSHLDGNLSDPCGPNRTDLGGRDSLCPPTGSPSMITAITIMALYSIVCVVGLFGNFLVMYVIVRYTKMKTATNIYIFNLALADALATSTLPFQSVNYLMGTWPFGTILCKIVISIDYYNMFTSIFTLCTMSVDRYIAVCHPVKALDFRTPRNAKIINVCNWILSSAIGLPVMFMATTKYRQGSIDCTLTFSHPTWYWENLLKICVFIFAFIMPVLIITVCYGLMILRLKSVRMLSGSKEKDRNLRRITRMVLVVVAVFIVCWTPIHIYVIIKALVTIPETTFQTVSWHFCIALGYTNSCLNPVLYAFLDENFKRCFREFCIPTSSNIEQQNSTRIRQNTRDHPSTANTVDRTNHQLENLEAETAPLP
SMILES,EC50 (mu opioid receptor (MOR) [1]; [3]) [nM],cAMP Max. Resp. (mu opioid receptor (MOR) [1]; [4]),β-arr Max. Resp. (mu opioid receptor (MOR) [2]; [5]),EC50 (mu opioid receptor (MOR) [2]; [6]) [nM],EC50 (mu opioid receptor (MOR) [1]; [10]) [nM],also measured
O=S(=O)(Cc1ccccc1Cl)N1C2CCC(C2)C1c1ccc(F)c(Br)c1 (stereo not shown) [Compound 183],> 2100,D (D represents a maximal response of < 40%),E (E represents a maximal response of 40-60%),> 2100,,
O=S(=O)(c1ccc(Cl)cc1F)N1C2CCC(C2)C1c1ccc(F)c(Br)c1 (stereo not shown) [Compound 184],> 2100,D (D represents a maximal response of < 40%),F (F represents a maximal response of > 60%),> 2100,,
Fc1cnc(Cl)nc1N1CCSCC1c1cccc(C(F)(F)F)c1 (stereo not shown) [Compound 456],> 2100,,,> 2100,,cAMP Max. Resp. (mu opioid receptor (MOR) [1]; [7]): E (E represents a maximal response of 40-60%); β-arr Max. Resp. (mu opioid receptor (MOR) [2]; [8]): F (F represents a maximal response of > 60%)
Fc1ccc(C2CSCCN2c2nc(Cl)ncc2F)cc1Cl (stereo not shown) [Compound 460],> 2100,,,> 2100,,cAMP Max. Resp. (mu opioid receptor (MOR) [1]; [7]): F (F represents a maximal response of > 60%); β-arr Max. Resp. (mu opioid receptor (MOR) [2]; [8]): F (F represents a maximal response of > 60%)
Fc1ccc(C2CCCCN2Cc2cccc(Cl)n2)cc1Cl (stereo not shown) [compound 1],,F (F represents a maximal response of > 60%),F (F represents a maximal response of > 60%),< 700,< 700,EC50 (mu opioid receptor (MOR) [1]; [9]): 186 nM; cAMP Max Resp. (mu opioid receptor (MOR) [1]; [11]): 63; β-arr. Max Resp. (mu opioid receptor (MOR) [2]; [12]): 138; EC50 (mu opioid receptor (MOR) [2]; [13]): 572 nM
O=S(=O)(c1ccc(Cl)cc1)N1CCCCC1c1cccc(C(F)(F)F)n1 (stereo not shown) [compound 3],,F (F represents a maximal response of > 60%),F (F represents a maximal response of > 60%),< 700,< 700,
Fc1cnc(Cl)nc1N1CCCCC1c1cccc(C(F)(F)F)c1 (stereo not shown) [compound 7],,F (F represents a maximal response of > 60%),F (F represents a maximal response of > 60%),< 700,< 700,
COc1ccc(C2CCCCN2S(=O)(=O)c2ccc(C)cc2)cc1Br (stereo not shown) [compound 12],,E (E represents a maximal response of 40-60%),F (F represents a maximal response of > 60%),> 2100,700 to 2100,
COc1ccc(C2CCCCN2S(=O)(=O)c2ccc(F)cc2)cc1Br (stereo not shown) [compound 13],> 2100,F (F represents a maximal response of > 60%),F (F represents a maximal response of > 60%),> 2100,,
COc1ccc(C2CCCCN2S(=O)(=O)c2ccccc2)cc1Br (stereo not shown) [compound 14],,E (E represents a maximal response of 40-60%),F (F represents a maximal response of > 60%),> 2100,> 2100,allosteric activity for cAMP signaling (mu opioid receptor (MOR) [1]): silent allosteric activity; allosteric activity for cAMP signaling (mu opioid receptor (MOR) [1]; listed as Compound No. 14): dual silent allosteric modulation; EC50 (mu opioid receptor (MOR) [1]; [9]): 9610 nM; cAMP Max Resp. (mu opioid receptor (MOR) [1]; [11]): 43; allosteric activity for β-arrestin recruitment (mu opioid receptor (MOR) [2]): silent allosteric activity; allosteric activity for β-arrestin recruitment (mu opioid receptor (MOR) [2]; listed as Compound No. 14): dual silent allosteric modulation; β-arr. Max Resp. (mu opioid receptor (MOR) [2]; [12]): 111; EC50 (mu opioid receptor (MOR) [2]; [13]): 13200 nM
COc1ccc(C2CCCCN2S(=O)(=O)C2CC2)cc1Br (stereo not shown) [compound 15],,E (E represents a maximal response of 40-60%),E (E represents a maximal response of 40-60%),> 2100,> 2100,
COc1ccc(C2CCCCN2S(C)(=O)=O)cc1Br (stereo not shown) [compound 16],,D (D represents a maximal response of < 40%),D (D represents a maximal response of < 40%),> 2100,> 2100,
COc1ccc(C2CCCCN2S(=O)(=O)c2cccnc2Cl)cc1Br (stereo not shown) [compound 17],,D (D represents a maximal response of < 40%),D (D represents a maximal response of < 40%),> 2100,> 2100,
O=S(=O)(c1ccc(Cl)cc1)N1CCCCC1c1cccc(C(F)(F)F)c1 (stereo not shown) [compound 18],700 to 2100,D (D represents a maximal response of < 40%),F (F represents a maximal response of > 60%),> 2100,,"cAMP Max Resp. (mu opioid receptor (MOR) [1]; adenylyl cyclase inhibition, activity switching by MOR PAMs): D (D represents a maximal response of < 40%); EC50 (mu opioid receptor (MOR) [1]; adenylyl cyclase inhibition, activity switching by MOR PAMs, read-out: cAMP EC50): > 2100 nM; β-arrestin Max Response (mu opioid receptor (MOR) [2]; β-arrestin recruitment, activity switching by MOR PAMs): F (F represents a maximal response of >60%); EC50 (mu opioid receptor (MOR) [2]; β-arrestin recruitment, activity switching by MOR PAMs, read-out: β-arrestin EC50): > 2100 nM"
COc1cc(C2CCCCN2S(=O)(=O)c2ccc(Cl)cc2)ccc1Br (stereo not shown) [compound 42],> 2100,D (D represents a maximal response of < 40%),E (E represents a maximal response of 40-60%),700 to 2100,,
O=S(=O)(c1ccc(Cl)cc1)N1CCCCC1c1ccc(OC(F)(F)F)c(Br)c1 (stereo not shown) [compound 43],> 2100,D (D represents a maximal response of < 40%),F (F represents a maximal response of > 60%),700 to 2100,,
O=S(=O)(c1ccc(Cl)cc1)N1CCCCC1c1ccc2c(c1)OCO2 (stereo not shown) [compound 44],> 2100,E (E represents a maximal response of 40-60%),F (F represents a maximal response of > 60%),> 2100,,"allosteric activity for cAMP signaling (mu opioid receptor (MOR) [1]): moderate positive allosteric activity; EC50 (mu opioid receptor (MOR) [1]; adenylyl cyclase inhibition, Table 3, read-out: cAMP EC50): 3740 nM; cAMP Max Resp. (mu opioid receptor (MOR) [1]; [11]): 57; allosteric activity for β-arrestin recruitment (mu opioid receptor (MOR) [2]): moderate positive allosteric activity; signaling preference β-arrestin vs cAMP (mu opioid receptor (MOR) [2]; comparison of β-arrestin and cAMP assays): equivalent effects on β-arrestin recruitment and cAMP signaling; β-arr. Max Resp. (mu opioid receptor (MOR) [2]; [12]): 99; EC50 (mu opioid receptor (MOR) [2]; [13]): 5670 nM"
